Patent US11873496B2, “Methods of altering gene expression by perturbing transcription factor multimers that structure regulatory loops” (Whitehead Institute for Biomedical Research, priority 2017, dated 2024)

Legend:
[1] = molecular target: T1, FKBP degron-tagged YY1 protein (Mus musculus, UniProt Q00899+Q8C7D2); experiment: dTAG inducible degradation of FKBP tagged YY1 (western blot); assay type: cell-based
T1 construct: A clonal homozygous knock-in line expressing FKBP tagged YY1 was used for the degradation experiments; endogenous in cells; host or cells: V6.5 mES cells, clonal homozygous knock-in (repair plasmids pAW62.YY1.FKBP.knock-in.mCherry and pAW63.YY1.FKBP.knock-in.BFP)
T1 sequence (Q00899 with tags, fused parts or gaps): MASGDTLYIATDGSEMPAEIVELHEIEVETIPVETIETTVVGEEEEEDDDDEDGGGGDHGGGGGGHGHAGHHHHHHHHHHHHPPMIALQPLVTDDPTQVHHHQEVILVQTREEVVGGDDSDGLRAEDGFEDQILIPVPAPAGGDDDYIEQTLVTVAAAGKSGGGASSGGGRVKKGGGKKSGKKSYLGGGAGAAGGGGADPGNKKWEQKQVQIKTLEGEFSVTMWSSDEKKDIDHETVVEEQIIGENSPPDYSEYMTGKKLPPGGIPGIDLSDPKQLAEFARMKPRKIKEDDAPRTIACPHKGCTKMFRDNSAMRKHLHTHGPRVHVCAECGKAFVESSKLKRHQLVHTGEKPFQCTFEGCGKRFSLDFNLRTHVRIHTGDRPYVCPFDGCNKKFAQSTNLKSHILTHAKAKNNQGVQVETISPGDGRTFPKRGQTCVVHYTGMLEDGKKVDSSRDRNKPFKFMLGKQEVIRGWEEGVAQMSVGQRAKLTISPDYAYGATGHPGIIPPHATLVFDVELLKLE
T1 sequence (Q8C7D2 whole entry): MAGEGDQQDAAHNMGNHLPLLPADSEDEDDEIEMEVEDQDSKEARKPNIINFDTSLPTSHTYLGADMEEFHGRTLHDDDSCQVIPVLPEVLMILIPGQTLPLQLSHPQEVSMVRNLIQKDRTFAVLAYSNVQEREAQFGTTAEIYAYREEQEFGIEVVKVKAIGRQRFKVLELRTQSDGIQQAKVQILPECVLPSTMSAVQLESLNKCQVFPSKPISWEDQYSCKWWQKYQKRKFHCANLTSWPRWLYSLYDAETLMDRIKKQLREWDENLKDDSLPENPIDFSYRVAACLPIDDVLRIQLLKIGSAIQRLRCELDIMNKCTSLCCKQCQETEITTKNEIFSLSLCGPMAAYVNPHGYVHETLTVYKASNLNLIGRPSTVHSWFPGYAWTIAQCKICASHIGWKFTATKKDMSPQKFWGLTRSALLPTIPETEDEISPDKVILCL
T1 sequence (Q3U1J4 whole entry partner): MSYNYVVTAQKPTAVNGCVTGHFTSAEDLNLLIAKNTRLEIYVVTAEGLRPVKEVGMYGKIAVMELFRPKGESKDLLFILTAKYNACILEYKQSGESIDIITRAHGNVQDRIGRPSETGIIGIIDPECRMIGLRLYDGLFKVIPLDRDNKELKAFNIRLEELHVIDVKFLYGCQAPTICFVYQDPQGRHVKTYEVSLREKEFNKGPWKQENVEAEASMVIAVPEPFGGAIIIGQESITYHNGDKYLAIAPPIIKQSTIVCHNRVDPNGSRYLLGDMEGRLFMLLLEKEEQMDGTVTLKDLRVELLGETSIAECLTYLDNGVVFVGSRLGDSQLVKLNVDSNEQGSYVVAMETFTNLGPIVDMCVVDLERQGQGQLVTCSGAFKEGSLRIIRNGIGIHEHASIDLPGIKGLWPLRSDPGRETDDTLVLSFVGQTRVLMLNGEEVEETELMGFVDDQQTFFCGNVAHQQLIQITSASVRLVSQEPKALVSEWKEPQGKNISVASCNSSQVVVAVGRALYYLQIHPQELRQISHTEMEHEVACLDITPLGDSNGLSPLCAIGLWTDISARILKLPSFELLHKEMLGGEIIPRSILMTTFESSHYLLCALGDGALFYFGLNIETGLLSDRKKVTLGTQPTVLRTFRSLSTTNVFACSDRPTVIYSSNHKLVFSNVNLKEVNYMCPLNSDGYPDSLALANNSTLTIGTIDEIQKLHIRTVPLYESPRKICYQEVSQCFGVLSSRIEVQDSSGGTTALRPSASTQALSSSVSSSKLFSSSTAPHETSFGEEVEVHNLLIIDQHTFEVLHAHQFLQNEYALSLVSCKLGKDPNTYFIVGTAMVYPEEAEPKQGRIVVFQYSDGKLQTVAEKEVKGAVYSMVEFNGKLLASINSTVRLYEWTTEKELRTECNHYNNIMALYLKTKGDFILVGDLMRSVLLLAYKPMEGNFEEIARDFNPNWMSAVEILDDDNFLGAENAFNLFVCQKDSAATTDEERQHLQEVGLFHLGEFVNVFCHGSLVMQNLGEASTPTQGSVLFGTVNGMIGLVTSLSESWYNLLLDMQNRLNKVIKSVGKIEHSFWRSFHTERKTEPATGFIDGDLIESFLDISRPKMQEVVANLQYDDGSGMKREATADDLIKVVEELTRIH
Procedure: For the generation of the endogenously tagged lines, five hundred thousand mES cells were transfected with 2.5 ug Cas9 plasmid and 1.25 ug non-linearized repair plasmid 1 (pAW62.YY1.FKBP.knock-in.mCherry) and 1.25 ug non-linearized repair plasmid 2 (pAW63.YY1.FKBP.knock-in.BFP). Cells were sorted after 48 hours for the presence of GFP. Cells were expanded for five days and then sorted again for double positive mCherry and BFP cells. Thirty thousand mCherry+/BFP+ sorted cells were plated in a six-well plate in a 1:2 serial dilution (first well 15,000 cells, second well 7,500 cells, etc). The cells were grown for approximately one week in 2i medium and then individual colonies were picked using a stereoscope into a 96-well plate. Cells were expanded and genotyped by PCR (YY1_gPCR_3F/3R, Table S3). Clones with a homozygous knock-in tag were further expanded and used for experiments.
A clonal homozygous knock-in line expressing FKBP tagged YY1 was used for the degradation experiments. Cells were grown two passages off MEFs and then treated with dTAG-47 at a concentration of 500 nM for 24 hours.
The homozygous knock-in line expressing FKBP tagged YY1 was cultured on 2i+LIF media. Cells were treated with dTAG-47 at a concentration of 500 nM for 24 hours. After 24 hours of drug treatment, cells were washed three times with PBS and passaged onto a new plate. […]

[2] = system: YY1-YY1 enhancer-promoter interactions; experiment: H3K27ac HiChIP of enhancer-promoter interactions after YY1 degradation and washout; assay type: cell-based, mouse; details: mES cells
Procedure: HiChIP was performed as described in (Mumbach et al., 2016) with a few modifications. Ten million cells cross-linked for 10 min at room temperature with 1% formaldehyde in growth media and quenched in 0.125 M glycine. After washing twice with ice-cold PBS, the supernatant was aspirated and the cell pellet was flash frozen in liquid nitrogen and stored at −80° C.
Cross-linked cell pellets were thawed on ice, resuspended in 800 μL of ice-cold Hi-C lysis buffer (10 mM Tris-HCl pH 8.0, 10 mM NaCl, and 0.2% IGEPAL CA-630 with 1× cOmplete protease inhibitor (Roche, 11697498001)), and incubated at 4° C. for 30 minutes with rotation. Nuclei were pelleted by centrifugation at 2500 rcf for 5 min at 4° C. and washed once with 500 μL of ice-cold Hi-C lysis buffer. After removing supernatant, nuclei were resuspended in 100 μL of 0.5% SDS and incubated at 62° C. for 10 minutes. SDS was quenched by adding 335 μL of 1.5% Triton X-100 and incubating for 15 minutes at 37° C. After the addition of 50 μL of 10×NEB Buffer 2 (NEB, B7002) and 375 U of MboI restriction enzyme (NEB, R0147), chromatin was digested at 37° C. for 2 hours with rotation. Following digestion, MboI enzyme was heat inactivated by incubating the nuclei at 62° C. for 20 min. […]

[3] = molecular target: HA-tagged YY1; experiment: co-immunoprecipitation from nuclear extract treated with RNase A before IP with anti-tag antibodies, western blot quantification
Sequence of HA-tagged YY1 (P25490 whole entry): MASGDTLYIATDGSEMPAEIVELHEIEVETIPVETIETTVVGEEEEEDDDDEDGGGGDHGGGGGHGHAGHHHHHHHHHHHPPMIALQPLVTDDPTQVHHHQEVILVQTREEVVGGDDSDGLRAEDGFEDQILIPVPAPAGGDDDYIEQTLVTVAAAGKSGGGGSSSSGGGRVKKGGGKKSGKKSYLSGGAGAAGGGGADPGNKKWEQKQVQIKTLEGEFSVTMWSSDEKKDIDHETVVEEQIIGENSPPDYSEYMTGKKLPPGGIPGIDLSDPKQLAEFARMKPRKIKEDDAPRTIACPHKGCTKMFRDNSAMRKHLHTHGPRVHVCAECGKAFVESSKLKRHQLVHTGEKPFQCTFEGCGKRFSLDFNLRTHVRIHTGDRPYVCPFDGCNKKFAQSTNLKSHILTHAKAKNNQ

[4] = system: linear DNA template containing YY1 binding sites; experiment: In vitro DNA circularization assay (T4 DNA ligase); assay type: biochemical; details: 0.25 nM DNA, 0.12 μg/μL protein, 20° C.; competitor 100 nM
Procedure: First, two plasmids (pAW49, pAW79) were generated. pAW49 contains YY1 binding sites separated by ˜3.5 kb of intervening DNA. pAW79 is identical except it contains filler DNA instead of the YY1 motifs. The intervening DNA was chosen based on looking at YY1 ChIP-seq and motif distribution in mES cells to identify regions that lacked YY1 occupancy and YY1 binding motifs. The YY1 binding motifs were chosen based on successful EMSAs (Sigova et al., 2015). Approximately 200 bp of sequence was added between the binding motifs and the termini in order to provide flexibility for the termini to ligate. The plasmid was built using Gibson assembly.
Next, a PCR was run using plasmid as a template to generate a linear piece of DNA (Table S5). This PCR product was PCR purified (Qiagen 28104) and then digested with BamHI (NEB R3136) and PCR purified. The BamHI digested template was used in the ligation assay.
The ligation assay was carried out as follows. Reactions were prepared on ice in 66 μL with the following components:
BSA control: 0.25 nM DNA, 1× T4 DNA ligase buffer (NEB B0202S), H2O, 0.12 μg/μL of BSA […]
Quantification was done using Image Lab version 5.2.1 (Bio-Rad Laboratories). First, band density of the starting product and ligation product were measured. Then the percent circularized was calculated: (ligation product)/(ligation product+starting band)*100. […]

[5] = molecular target: YY1 (Homo sapiens, UniProt P25490 P25490:1-414); experiment: EMSA; 20 fmol probe, 2 ug YY1, 5 mM MgCl2, 0.1 mM ZnCl2, poly dIdC, RT; abolished by 200-fold cold competitor; details: label: 5' biotin
Sequence of YY1 (P25490 whole entry, one chain of several): as the sequence (P25490 whole entry) above
Procedure: To generate the biotin labeled probe, 30-nucleotide-long 5' biotinylated single stranded oligonucleotides (IDT) were annealed in 10 mM Tris pH 7.5, 50 mM NaCl, and 1 mM EDTA at a 50 uM concentration. The same protocol was used to generate the cold competitor. The probe was serially diluted to a concentration of 10 fmol/4 and cold competitor to a concentration of 2 pmol/µL. 2 µL of diluted probe and cold competitor were used for each binding reaction for a final amount of 20 fmol labeled probe and 4 pmol cold competitor (200 fold excess) in each reaction.
Binding reactions were set-up in a 20 µL volume containing 1× Binding Buffer (10 mM Tris, 50 mM KCl, 1 mM DTT; pH 7.5), 2.5% Glycerol, 5 mM MgCl2, 50 ng/4 Poly dl dC, 0.05% Np-40, 0.1 mM ZnCl2, 10 mM Hepes, and 2 ug of recombinant YY1 protein. Binding reactions were pre-incubated for 20 mins at room temperature with or without the cold competitor. Labeled probe was then added to binding reactions and incubated for 80 minutes at room temperature. […] The DNA was then crosslinked to the membrane by placing the membrane on a Dark Reader Transilluminator for 15 mins. The membrane was allowed to air dry at room temperature overnight and chemiluminescence detected the following day. […]

## CC[C@H](C(=O)N1CCCC[C@H]1C(=O)O[C@H](CCc1ccc(OC)c(OC)c1)c1ccccc1OCC(=O)NCCCCCCCCNc1ccc2c(c1)C(=O)N(C1CCC(=O)NC1=O)C2=O)c1cc(OC)c(OC)c(OC)c1 (stereo partly drawn) [dTAG-47, (2S)-(1R)-3-(3,4-dimethoxyphenyl)-1-(2-(2-((8-((2-(2,6-dioxopiperidin-3-yl)-1,3-dioxoisoindolin-5-yl)amino)octyl)amino)-2-oxoethoxy)phenyl)propyl 1-((S)-2-(3,4,5-trimethoxyphenyl)butanoyl)piperidine-2-carboxylate]
[1]; FKBP degron tag knocked-in to both alleles of Yy1, mES cells, 24 hours treatment
  YY1 protein degradation: rapid proteasome-mediated degradation
[1]; after 24 hours treatment at 500 nM, drug withdrawal
  washout time allowing recovery of YY1 protein levels: 5 days
[2]; treated
  enhancer-promoter interactions after YY1 degradation (H3K27ac HiChIP): loss in enhancer-promoter interactions
[2]; washout
  enhancer-promoter interactions after washout and recovery of YY1 levels (H3K27ac HiChIP): substantial increase in enhancer-promoter interactions

## FLAG-tagged YY1
[3]
  reduction in the amount of co-immunoprecipitated YY1 partner protein after RNase A treatment: 60%

## bovine serum albumin (BSA): control protein in the DNA circularization assay
[4]
  rate of DNA circularization: did not increase the rate of DNA ligation

B1: YY1 EMSA probe (dsDNA)
DNA 1: TCGCTCCCCGGCCATCTTGGCGGCTGGTGT
DNA 2: ACACCAGCCGCCAAGATGGCCGGGGAGCGA
[5]
  binding result: binds

B2: competing 200 base pair DNA fragment: 200 base pair DNA fragment containing the YY1 consensus binding sequence, SEQ ID NO: 28 (nucleic acid)
DNA: GAGCAACAACAACAACGAACCGGTTCGACCTCCCCGGCCATCTTTCGACCTCCCCGGCCATCTTTCGACCTCCCCGGCCATCTTTCGACCTCCCCGGCCATCTTTCGACCTCCCCGGCCATCTTTCGACCTCCCCGGCCATCTTTCGACCTCCCCGGCCATCTTTCGACCTCCCGTCGACAGAGGCAGCAAAAGCCAGA
modifications: competitor DNA
[4]
  rate of DNA circularization: abrogated circularization
